In ChEMBL document CHEMBL6078703, “Discovery of Novel Thiophene-Based Baloxavir Derivatives as Potent Cap-Dependent Endonuclease Inhibitors for Influenza Treatment” (J Med Chem, 2024):

Assays:
Influenza A virus [1] = test: Antiviral activity against influenza strain A/Aichi/ 2/1968 (H3N2) infected in MDCK cells assessed as reduction of virus-induced cytopathic effect measured after 2 days incubation; format: functional, organism-based; details: 48 h
[2] = Selectivity index, ratio of CC50 for dog MDCK cells to EC50 for antiviral activity against influenza strain A/Aichi/ 2/1968 (H3N2) infected in MDCK cells; format: toxicity, cell-based; details: read-out: Selectivity Index
Influenza A virus [3] = test: Antiviral activity against influenza strain A/WSN/1933 (H1N1) infected in MDCK cells assessed as reduction of virus-induced cytopathic effect measured after 2 days incubation; format: functional, organism-based; details: 48 h
[4] = Selectivity index, ratio of CC50 for dog MDCK cells to EC50 for antiviral activity against influenza strain A/WSN/1933 (H1N1) infected in MDCK cells; format: toxicity, cell-based; details: read-out: Selectivity Index
[5] = Cytotoxicity against dog MDCK cells assessed as cell viability measured after 48 hrs by CCK-8 assay; format: toxicity, cell-based, Canis lupus familiaris
[6] = Metabolic stability in mouse liver microsomes assessed as intrinsic clearance measured up to 60 mins by LC-MS/MS analysis; format: ADME, Microsome; details: read-out: CLH
[7] = Metabolic stability in mouse liver microsomes assessed as half life measured up to 60 mins by LC-MS/MS analysis; format: ADME, Microsome
[8] = Metabolic stability in human liver microsomes assessed as intrinsic clearance measured up to 60 mins by LC-MS/MS analysis; format: ADME, Microsome; details: read-out: CLH
[9] = Metabolic stability in human liver microsomes assessed as half life measured up to 60 mins by LC-MS/MS analysis; format: ADME, Microsome

| SMILES | EC50 (Influenza A virus [1]) | selectivity ratio [2] | EC50 (Influenza A virus [3]) | selectivity ratio [4] | CC50 at 48 h [5] | CLint scaled [6] | half-life [7] | CLint scaled [8] | half-life [9] |
| --- | --- | --- | --- | --- | --- | --- | --- | --- | --- |
| O=C1c2c(O)c(=O)ccn2N([C@@H](c2ccc(F)c(F)c2)c2ccc(Br)s2)[C@@H]2COCCN12 | 0.0316 µM | 623 | 0.0302 µM | 652 | 19.7 µM | – | – | – | – |
| O=C1c2c(O)c(=O)ccn2N([C@H](c2ccc(F)c(F)c2)c2ccc(-c3ccccc3)s2)[C@@H]2COCCN12 | 0.00375 µM | 12900 | 0.0204 µM | 2380 | 48.5 µM | – | – | – | – |
| O=C1c2c(O)c(=O)ccn2N([C@H](c2ccc(F)c(F)c2)c2ccc(Br)s2)[C@@H]2COCCN12 | 0.0283 µM | 613 | 0.0491 µM | 353 | 17.3 µM | – | – | – | – |
| O=C1c2c(O)c(=O)ccn2N([C@H](c2ccc(F)c(F)c2)c2cc3ccccc3s2)[C@@H]2COCCN12 | 0.0203 µM | > 2460 | 0.0209 µM | > 2400 | > 50 µM | – | – | – | – |
| O=C1c2c(O)c(=O)ccn2N([C@@H](c2ccc3ccccc3c2)c2cccs2)[C@@H]2COCCN12 | 0.0536 µM | 758 | 0.0423 µM | 960 | 40.6 µM | – | – | – | – |
| O=C1c2c(O)c(=O)ccn2N([C@H](c2cccs2)c2cc(F)c(F)c(F)c2F)[C@@H]2COCCN12 | 0.0138 µM | > 3630 | 0.0124 µM | > 4020 | > 50 µM | – | – | – | – |
| O=C1c2c(O)c(=O)ccn2N([C@@H](c2ccc(F)cc2)c2cccs2)[C@@H]2COCCN12 | 0.00165 µM | 22800 | 0.00506 µM | 7440 | 37.6 µM | 3.96 mL/min/kg | 23.1 h | 1.62 mL/min/kg | 12.8 h |
| O=C1c2c(O)c(=O)ccn2N([C@H](c2cccc(F)c2)c2cccs2)[C@@H]2COCCN12 | 0.026 µM | 1320 | 0.00349 µM | 9840 | 34.3 µM | – | – | – | – |
| O=C1c2c(O)c(=O)ccn2N([C@@H](c2cccs2)c2cc(F)c(F)c(F)c2F)[C@@H]2COCCN12 | 0.00778 µM | > 6430 | 0.00564 µM | > 8860 | > 50 µM | – | – | – | – |
| O=C1c2c(O)c(=O)ccn2N([C@H](c2cc(F)c(F)c(F)c2)c2cccs2)[C@@H]2COCCN12 | 0.0219 µM | 1190 | 0.00191 µM | 13600 | 26 µM | – | – | – | – |
| O=C1c2c(O)c(=O)ccn2N([C@H](c2ccc(F)c(F)c2)c2ccc(Cl)s2)[C@@H]2COCCN12 | 0.0308 µM | 783 | 0.0159 µM | 1510 | 24.1 µM | – | – | – | – |
| O=C1c2c(O)c(=O)ccn2N([C@@H](c2cccc(F)c2)c2cccs2)[C@@H]2COCCN12 | 0.0152 µM | > 3290 | 0.00554 µM | > 9020 | > 50 µM | – | – | – | – |
| O=C1c2c(O)c(=O)ccn2N([C@@H](c2ccc(F)c(F)c2)c2ccc(Cl)s2)[C@@H]2COCCN12 | 0.0519 µM | 373 | 0.0292 µM | 663 | 19.4 µM | – | – | – | – |
| Cc1ccc([C@@H](c2cccs2)N2[C@@H]3COCCN3C(=O)c3c(O)c(=O)ccn32)cc1C | 0.00179 µM | 15600 | 0.00667 µM | 4190 | 28 µM | – | – | – | – |
| O=C1c2c(O)c(=O)ccn2N([C@H](c2ccc(Br)c(Br)c2)c2cccs2)[C@@H]2COCCN12 | 0.0176 µM | 1410 | 0.0162 µM | 1540 | 24.9 µM | – | – | – | – |
| O=C(O)Cc1ccccc1Nc1c(Cl)cccc1Cl [DICLOFENAC] | – | – | – | – | – | 136 mL/min/kg | – | 221 mL/min/kg | – |
| O=C1c2c(O)c(=O)ccn2N([C@@H](c2ccc(Cl)c(Cl)c2)c2cccs2)[C@@H]2COCCN12 | 0.0606 µM | 539 | 0.0448 µM | 729 | 32.6 µM | – | – | – | – |
| O=C1c2c(O)c(=O)ccn2N([C@@H](c2ccc(F)c(F)c2)c2ccc(-c3ccccc3)s2)[C@@H]2COCCN12 | 0.0111 µM | 3580 | 0.0362 µM | 1100 | 39.8 µM | – | – | – | – |
| O=C1c2c(O)c(=O)ccn2N([C@@H](c2ccc(F)c(F)c2)c2cc3ccccc3s2)[C@@H]2COCCN12 | 0.00598 µM | > 8360 | 0.0424 µM | > 1180 | > 50 µM | – | – | – | – |
| O=C1c2c(O)c(=O)ccn2N([C@H](c2ccc(F)cc2)c2cccs2)[C@@H]2COCCN12 | – | – | 0.00319 µM | 8390 | – | – | – | – | – |
| Cc1ccc([C@H](c2cccs2)N2[C@@H]3COCCN3C(=O)c3c(O)c(=O)ccn32)cc1C | 0.00811 µM | 2530 | 0.0478 µM | 429 | 20.5 µM | – | – | – | – |
| O=C1c2c(O)c(=O)ccn2N([C@H](c2ccccc2)c2cccs2)[C@@H]2COCCN12 | 0.0468 µM | > 1070 | 0.0364 µM | > 1370 | > 50 µM | – | – | – | – |
| O=C1c2c(O)c(=O)ccn2N([C@H](c2ccc3ccccc3c2)c2cccs2)[C@@H]2COCCN12 | 0.0763 µM | – | 0.0228 µM | 752 | 17.2 µM | – | – | – | – |
| O=C1c2c(O)c(=O)ccn2N([C@@H](c2ccccc2)c2cccs2)[C@@H]2COCCN12 | 0.0218 µM | > 2300 | 0.0398 µM | > 1260 | > 50 µM | – | – | – | – |
| O=C1c2c(O)c(=O)ccn2N([C@H](c2ccc(Cl)c(Cl)c2)c2cccs2)[C@@H]2COCCN12 | 0.013 µM | 931 | 0.0562 µM | 215 | 12.1 µM | – | – | – | – |
| O=C1c2c(O)c(=O)ccn2N([C@@H](c2cc(F)c(F)c(F)c2)c2cccs2)[C@@H]2COCCN12 | 0.00543 µM | > 9210 | 0.00934 µM | > 5350 | > 50 µM | – | – | – | – |
| O=C1c2c(O)c(=O)ccn2N([C@H](c2ccc(F)c(F)c2)c2cccs2)[C@@H]2COCCN12 | 0.00308 µM | 8200 | 0.00804 µM | 3140 | 25.2 µM | 11.9 mL/min/kg | 7.7 h | 4.68 mL/min/kg | 4.45 h |
| O=C1c2c(O)c(=O)ccn2N([C@@H](c2ccc(Br)c(Br)c2)c2cccs2)[C@@H]2COCCN12 | 0.0069 µM | > 7250 | 0.0356 µM | > 1400 | > 50 µM | – | – | – | – |
